Assay results published in PMC6256987, “Investigating the Activity Spectrum for Ring-Substituted 8-Hydroxyquinolines” (Molecules, 2010).
In brackets after ≈: the same amount, converted by molar mass. Like-named read-outs stand apart in the source and are kept apart here.

What was measured:
[1] = test system: Candida albicans ATCC 44859; assay: In vitro antifungal broth microdilution test; format: cell-based; settings: 35 °C, RPMI 1640 pH 7.0, CLSI M27-A2 (IC80 value); for MIC: Candida albicans, ATCC44859
[2] = test system: Aspergillus fumigatus 231; assay: In vitro antifungal broth microdilution test; format: cell-based; settings: 35 °C, RPMI 1640 pH 7.0, CLSI M38-A (IC50 value); for MIC: Aspergillus fumigatus, 231
[3] = test system: Trichophyton mentagrophytes 445; assay: In vitro antifungal broth microdilution test; format: cell-based
[4] = test system: photosynthetic electron transport (PET) in spinach chloroplasts; assay: Inhibition of photosynthetic electron transport (PET) in spinach chloroplasts, DCPIP photoreduction; format: biochemical, Spinacia oleracea L.; settings: DCPIP as electron acceptor, phosphate buffer pH 7.2, read-out: PET reduction IC50
Description: Chloroplasts were prepared from spinach (Spinacia oleracea L.) according to Masarovicova and Kralova. The inhibition of photosynthetic electron transport (PET) in spinach chloroplasts was determined spectrophotometrically (Genesys 6, Thermo Scientific, USA) using an artificial electron acceptor 2,6-dichlorophenol-indophenol (DCIPP) according to Kralova et al. and the rate of photosynthetic electron transport was monitored as a photoreduction of DCPIP. The measurements were carried out in phosphate buffer (0.02 mol/L, pH 7.2) containing sucrose (0.4 mol/L), MgCl2 (0.005 mol/L) and NaCl (0.015 mol/L). The chlorophyll content was 30 mg/L in these experiments and the samples were irradiated (~100 W/m^2) from 10 cm distance with a halogen lamp (250 W) using a 4 cm water filter to prevent warming of the samples (suspension temperature 22 °C). The studied compounds were dissolved in DMSO due to their limited water solubility. […] The inhibitory efficiency of the studied compounds was expressed by IC50 values, i.e., by molar concentration of the compounds causing 50% decrease in the oxygen evolution rate relative to the untreated control.

[5] = test system: Candida glabrata 20/I; assay: In vitro antifungal broth microdilution test; format: cell-based; settings: 35 °C, RPMI 1640 pH 7.0, CLSI M27-A2 (IC80 value); for MIC: Nakaseomyces glabratus, 20/I
[6] = test system: Trichosporon beigelii 1188; assay: In vitro antifungal broth microdilution test; format: cell-based
Description: Fluconazole (FLU) was used as the standard of a clinically used antimycotic drug. The procedure was performed with twofold dilution of the compounds in RPMI 1640 (Sevapharma a.s., Prague, Czech Republic) buffered to pH 7.0 with 0.165 mol of 3-morpholino-propane-1-sulfonic acid (MOPS, Sigma, Germany). The final concentrations of the compounds ranged from 500 to 0.975 μmol/L. Drug–free controls were included. The MIC determination was performed according to the CLSI (formerly NCCLS) reference protocol M27-A2 for yeasts (IC80 value) and M38-A for moulds (IC50 value). […] The values of MICs were determined after 24 and 48 h of static incubation at 35 °C. For T. mentagrophytes, the final MICs were determined after 72 and 120 h of incubation.

[7] = test system: Absidia corymbifera 272; assay: In vitro antifungal broth microdilution test; format: cell-based; settings: 35 °C, RPMI 1640 pH 7.0, CLSI M38-A (IC50 value); for MIC: Lichtheimia corymbifera, 272
[8] = test system: Candida tropicalis 156; assay: In vitro antifungal broth microdilution test; format: cell-based; settings: 35 °C, RPMI 1640 pH 7.0, CLSI M27-A2 (IC80 value); for MIC: Candida tropicalis, 156
[9] = test system: Candida krusei ATCC 6258; assay: In vitro antifungal broth microdilution test; format: cell-based; settings: 35 °C, RPMI 1640 pH 7.0, CLSI M27-A2 (IC80 value); for MIC: Pichia kudriavzevii, ATCC6258
[10] = Lipophilicity determination by RP-HPLC (capacity factor k / log k); format: physicochemical; settings: C18 column, isocratic MeOH 55.0% / H2O 45.0%
Excerpt: A Waters Alliance 2695 XE HPLC separation module and Waters Photodiode Array Detector 2996 (Waters Corp., Milford, MA, USA) were used. A Symmetry® C18 5 μm, 4.6 × 250 mm, Part No. WAT054275, (Waters Corp., Milford, MA, USA) chromatographic column was used. The HPLC separation process was monitored by Millennium32® Chromatography Manager Software, Waters 2004 (Waters Corp., Milford, MA, USA). A mixture of MeOH p.a. (55.0%) and H2O-HPLC– Mili-Q Grade (45.0%) was used as a mobile phase. The total flow of the column was 0.9 mL/min, injection 30 μL, column temperature 30 °C and sample temperature 10 °C. The detection wavelength 210 nm was chosen. The KI methanolic solution was used for the dead time (tD) determination. Retention times (tR) were measured in minutes.
The capacity factors k were calculated using the Millennium32® Chromatography Manager Software according to formula k = (tR - tD)/tD, where tR is the retention time of the solute, whereas tD denotes the dead time obtained via an unretained analyte. Log k, calculated from the capacity factor k, is used as the lipophilicity index converted to log P scale.

[11] = Trichophyton mentagrophytes, 445, 120 h, pH 7
[12] = Trichophyton mentagrophytes, 445, 72h, RPMI 1640 pH 7.0, CLSI M38-A (IC50 value)
[13] = Trichosporon beigelii, 1188, 24h, 35 °C, RPMI 1640 pH 7.0, CLSI M27-A2 (IC80 value), read-out: MIC TB
[14] = Trichosporon beigelii, 1188, 48h, 35 °C, RPMI 1640 pH 7.0, CLSI M27-A2 (IC80 value), read-out: MIC TB

Molecule	MIC ([1]; 24h) [µM]	MIC ([1]; 48h) [µM]	MIC ([2]; 24h) [µM]	MIC ([2]; 48h) [µM]	MIC [3, 11] [µM]	MIC [3, 12] [µM]	IC50 [4] [µM]	MIC ([5]; 24h) [µM]	MIC ([5]; 48h) [µM]	MIC [6, 13] [µM]	MIC [6, 14] [µM]	MIC ([7]; 24h) [µM]	MIC ([7]; 48h) [µM]	MIC ([8]; 24h) [µM]	MIC ([8]; 48h) [µM]	MIC ([9]; 24h) [µM]	MIC ([9]; 48h) [µM]	log k [10]	further results
CC(=O)Nc1ccc2cccc(OC(C)=O)c2n1 [Compound 8, 2-Acetylaminoquinolin-8-yl acetate]	15.6	62.5	62.5	62.5	62.5	62.5	306	31.2	62.5	62.5	125	62.5	62.5	31.2	31.2	62.5	62.5	0.3583	
O=[N+]([O-])c1cc(S(=O)(=O)O)c2cccnc2c1O [Compound 2, 8-Hydroxy-7-nitroquinoline-5-sulfonic acid]	> 250	> 250	> 250	> 250	> 250	> 250		> 250	> 250	> 250	> 250	> 250	> 250	> 250	> 250	> 250	> 250	0.1479	
O=S(=O)(O)c1cc(Br)c(O)c2ncccc12 [Compound 3, 7-Bromo-8-hydroxyquinoline-5-sulfonic acid]	0.77 (≈ 0.234 µg/mL)	1.95 (≈ 0.593 µg/mL)	0.77 (≈ 0.234 µg/mL)	1.95 (≈ 0.593 µg/mL)	1.95 (≈ 0.593 µg/mL)	1.95 (≈ 0.593 µg/mL)	33.5	1.95 (≈ 0.593 µg/mL)	3.9 (≈ 1.19 µg/mL)		3.9 (≈ 1.19 µg/mL)	7.8 (≈ 2.37 µg/mL)	7.8 (≈ 2.37 µg/mL)	1.95 (≈ 0.593 µg/mL)	3.9 (≈ 1.19 µg/mL)	3.9 (≈ 1.19 µg/mL)	3.9 (≈ 1.19 µg/mL)	0.3786	MIC ([6]; Trichosporon beigelii, 1188, 24 h, pH 7, read-out: MIC TB): 3.9 µM (≈ 1.19 µg/mL)
O=S(=O)(NCCc1ccccc1)c1ccc(O)c2ncccc12 [Compound 6, 8-Hydroxyquinoline-5-sulfonic acid (2-phenylethyl)amide]	125 (≈ 41 µg/mL)	125 (≈ 41 µg/mL)	125 (≈ 41 µg/mL)	125 (≈ 41 µg/mL)	125 (≈ 41 µg/mL)	125 (≈ 41 µg/mL)	304	125 (≈ 41 µg/mL)	125 (≈ 41 µg/mL)	125 (≈ 41 µg/mL)	125 (≈ 41 µg/mL)	125 (≈ 41 µg/mL)	125 (≈ 41 µg/mL)	125 (≈ 41 µg/mL)	125 (≈ 41 µg/mL)	125 (≈ 41 µg/mL)	125 (≈ 41 µg/mL)	0.3349	
O=S(=O)(NCCCCc1ccccc1)c1ccc(O)c2ncccc12 [Compound 7, 8-Hydroxyquinoline-5-sulfonic acid (4-phenylbutyl)amide]	> 125	> 125	> 125	> 125	> 125	> 125	616	> 125	> 125	> 125	> 125	> 125	> 125	> 125	> 125	> 125	> 125	0.3902	
Oc1ccccc1C=Cc1ccc2c(Cl)cc(Cl)c(O)c2n1 [Compound 9, 5,7-Dichloro-2-[2-(2-hydroxyphenyl)vinyl]quinolin-8-ol]																		1.5854	
O=[N+]([O-])c1ccc(O)c2ncccc12 [Compound 1, 5-Nitroquinolin-8-ol]	> 500	> 500	> 500	> 500	> 500	> 500	78	> 500	> 500	> 500	> 500	> 500	> 500	> 500	> 500	> 500	> 500	0.5695	
8-Hydroxyquinoline-5-sulfonic acid isobutylamide [Compound 5]							54.4											0.3373	MIC CA ([1]; 24h): 125 µM; MIC CA ([1]; 48h): 250 µM; MIC AF ([2]; 24h): 250 µM; MIC AF ([2]; 48h): 250 µM; MIC TM ([3]; 72h, RPMI 1640 pH 7.0, CLSI M38-A (IC50 value)): 62.50 µM; MIC TM ([3]; 120h, RPMI 1640 pH 7.0, CLSI M38-A (IC50 value)): 125 µM; MIC CG ([5]; 24h): 125 µM; MIC CG ([5]; 48h): 250 µM; MIC TB ([6]; 24h, 35 °C, RPMI 1640 pH 7.0, CLSI M27-A2 (IC80 value)): 250 µM; MIC TB ([6]; 48h, 35 °C, RPMI 1640 pH 7.0, CLSI M27-A2 (IC80 value)): 500 µM; MIC AC ([7]; 24h): 125 µM; MIC AC ([7]; 48h): 125 µM; MIC CT ([8]; 24h): 250 µM; MIC CT ([8]; 48h): 250 µM; MIC CK ([9]; 24h): 250 µM; MIC CK ([9]; 48h): 250 µM
O=S(=O)(c1ccc(O)c2ncccc12)N1CCOCC1 [Compound 4, 5-(Morpholine-4-sulfonyl)quinolin-8-ol]	125 (≈ 36.8 µg/mL)	500 (≈ 147 µg/mL)	500 (≈ 147 µg/mL)	500 (≈ 147 µg/mL)	250 (≈ 73.6 µg/mL)	250 (≈ 73.6 µg/mL)		500 (≈ 147 µg/mL)	500 (≈ 147 µg/mL)	500 (≈ 147 µg/mL)	500 (≈ 147 µg/mL)	125 (≈ 36.8 µg/mL)	250 (≈ 73.6 µg/mL)	500 (≈ 147 µg/mL)	500 (≈ 147 µg/mL)	250 (≈ 73.6 µg/mL)	500 (≈ 147 µg/mL)	0.3293	
OC(Cn1cncn1)(Cn1cncn1)c1ccc(F)cc1F [FLU, fluconazole, reference compound]	0.06 (≈ 0.0184 µg/mL)	0.12 (≈ 0.0368 µg/mL)	> 125	> 125	3.91 (≈ 1.2 µg/mL)	1.95 (≈ 0.597 µg/mL)		0.98 (≈ 0.3 µg/mL)	3.91 (≈ 1.2 µg/mL)	0.24 (≈ 0.0735 µg/mL)	0.48 (≈ 0.147 µg/mL)	> 125	> 125	0.12 (≈ 0.0368 µg/mL)	> 125	3.91 (≈ 1.2 µg/mL)	15.6 (≈ 4.78 µg/mL)		
